Patent US10851064B2, “ACSS2 inhibitors and methods of use thereof” (METABOMED LTD., priority 2017, dated 2020)

Biological target: ACSS2 (Homo sapiens, UniProt Q9NR19)
Assay: biochemical
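Also: Cell-free human ACSS2 enzyme reaction with acetate, CoA and ATP, 90 min at 37 C, coupled to pyrophosphatase, phosphate release detected by Biomol Green absorbance at 620 nm.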

Sequence of ACSS2 (Q9NR19 whole entry): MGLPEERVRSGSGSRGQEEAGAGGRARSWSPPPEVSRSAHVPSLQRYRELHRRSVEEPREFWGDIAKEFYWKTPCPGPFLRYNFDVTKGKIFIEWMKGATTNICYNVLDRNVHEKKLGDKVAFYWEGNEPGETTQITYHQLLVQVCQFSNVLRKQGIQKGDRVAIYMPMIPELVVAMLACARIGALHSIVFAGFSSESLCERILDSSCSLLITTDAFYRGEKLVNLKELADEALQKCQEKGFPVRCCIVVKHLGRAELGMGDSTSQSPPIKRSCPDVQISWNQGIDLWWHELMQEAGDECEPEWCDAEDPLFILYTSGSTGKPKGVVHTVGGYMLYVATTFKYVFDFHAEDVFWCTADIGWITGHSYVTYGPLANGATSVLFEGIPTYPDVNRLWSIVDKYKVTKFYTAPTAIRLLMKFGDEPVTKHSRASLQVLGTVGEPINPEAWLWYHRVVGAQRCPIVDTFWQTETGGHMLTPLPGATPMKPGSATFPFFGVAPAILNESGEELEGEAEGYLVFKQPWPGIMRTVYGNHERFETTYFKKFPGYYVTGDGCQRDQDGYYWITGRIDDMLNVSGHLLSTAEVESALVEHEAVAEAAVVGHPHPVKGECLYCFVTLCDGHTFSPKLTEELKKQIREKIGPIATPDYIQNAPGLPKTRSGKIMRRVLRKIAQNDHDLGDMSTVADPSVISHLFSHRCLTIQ

| Structure (SMILES) | IC50 |
| --- | --- |
| CC1=NN(c2ccccc2)C(=O)C1C(=O)Nc1ccc2c(c1)CCC2 (stereo not drawn) [compound 209, N-(2,3-dihydro-1H-inden-5-yl)-3-methyl-5-oxo-1-phenyl-4,5-dihydro-1H-pyrazole-4-carboxamide] | 100 to 1000 nM |
| CC1=NN(c2ccccc2)C(=O)C1C(=O)Nc1cccc(Cl)c1 (stereo not drawn) [compound 210, N-(3-chlorophenyl)-3-methyl-5-oxo-1-phenyl-4,5-dihydro-1H-pyrazole-4-carboxamide] | 6 to 100 nM |
| COc1cccc(NC(=O)C2C(=O)N(c3ccccc3)N=C2C)c1 (stereo not drawn) [compound 211, N-(3-methoxyphenyl)-3-methyl-5-oxo-1-phenyl-4,5-dihydro-1H-pyrazole-4-carboxamide] | 6 to 100 nM |
| CC1=NN(c2ccccc2)C(=O)C1C(=O)Nc1cccc(C)c1 (stereo not drawn) [compound 212, 3-methyl-5-oxo-1-phenyl-N-(m-tolyl)-4,5-dihydro-1H-pyrazole-4-carboxamide] | 1000 to 100000 nM |
| CC1=NN(c2ccccc2)C(=O)C1C(=O)Nc1ccccn1 (stereo not drawn) [compound 214, 3-methyl-5-oxo-1-phenyl-N-(pyridin-2-yl)-4,5-dihydro-1H-pyrazole-4-carboxamide] | > 100000 nM |
| CC1=NN(c2ccccc2)C(=O)C1C(=O)Nc1ccncc1 (stereo not drawn) [compound 216, 3-methyl-5-oxo-1-phenyl-N-(pyridin-4-yl)-4,5-dihydro-1H-pyrazole-4-carboxamide] | 1000 to 100000 nM |
| CC1=NN(c2ccccc2)C(=O)C1C(=O)Nc1nccs1 (stereo not drawn) [compound 217, 3-methyl-5-oxo-1-phenyl-N-(thiazol-2-yl)-4,5-dihydro-1H-pyrazole-4-carboxamide] | > 100000 nM |
| CC1=NN(c2ccccc2)C(=O)C1C(=O)N[C@@H](C)C(=O)O (stereo partly drawn) [compound 218, (2S)-2-(3-methyl-5-oxo-1-phenyl-4,5-dihydro-1H-pyrazole-4-carboxamido)propanoic acid] | 1000 to 100000 nM |
| CC1=NN(C2CCN(C)CC2)C(=O)C1C(=O)Nc1ccccc1 (stereo not drawn) [compound 221, 3-methyl-1-(1-methylpiperidin-4-yl)-5-oxo-N-phenyl-4,5-dihydro-1H-pyrazole-4-carboxamide] | > 100000 nM |
| CC1=NN(c2ccccc2)C(=O)C1C(=O)Nc1cccc(O)c1 (stereo not drawn) [compound 222, N-(3-hydroxyphenyl)-3-methyl-5-oxo-1-phenyl-4,5-dihydro-1H-pyrazole-4-carboxamide] | 1000 to 100000 nM |
| CC1=NN(c2ccccc2)C(=O)C1C(=O)Nc1cccc(CN)c1 (stereo not drawn) [compound 223, N-(3-(aminomethyl)phenyl)-3-methyl-5-oxo-1-phenyl-4,5-dihydro-1H-pyrazole-4-carboxamide] | 1000 to 100000 nM |
| CCc1cccc(NC(=O)c2c(C)nn(-c3ccc(NC)cc3)c2OC(=O)N(C)C)c1 [compound 224, 4-((3-ethylphenyl)carbamoyl)-3-methyl-1-(4-(methylamino)phenyl)-1H-pyrazol-5-yl dimethylcarbamate] | 1000 to 100000 nM |
| CC1=NN(c2ccncc2)C(=O)C1C(=O)Nc1cccc(-c2cnccn2)c1 (stereo not drawn) [compound 232] | 6 to 100 nM |
| CC1=NN(c2ccncc2)C(=O)C1C(=O)Nc1cccc(-c2ncc[nH]2)c1 (stereo not drawn) [compound 233] | 100 to 1000 nM |
| CC1=NN(c2cccc(C(=O)OC(C)C)c2)C(=O)C1C(=O)Nc1cccc(-c2ncco2)c1 (stereo not drawn) [compound 238] | 6 to 100 nM |
| CC1=NN(c2ccccc2)C(=O)C1C(=O)Nc1cccc(-c2ccon2)c1 (stereo not drawn) [compound 239] | 1000 to 100000 nM |
| CC1=NN(c2ccncc2)C(=O)C1C(=O)Nc1cccc(-c2ccco2)c1 (stereo not drawn) [compound 240] | 6 to 100 nM |
| COc1ccc(N2N=C(C)C(C(=O)Nc3cccc(-c4ncco4)c3)C2=O)cn1 (stereo not drawn) [compound 245] | 6 to 100 nM |
| CC1=NN(c2ccc(S(=O)(=O)N(C)C)cc2)C(=O)C1C(=O)Nc1cccc(-c2ncco2)c1 (stereo not drawn) [compound 254] | 100 to 1000 nM |
| COc1ccc(N2N=C(C)C(C(=O)Nc3cccc(-c4ncco4)c3)C2=O)cc1 (stereo not drawn) [compound 256] | 6 to 100 nM |
| CCc1ccc(NC(=O)C2C(=O)N(c3ccccc3)N=C2C)s1 (stereo not drawn) [compound 260] | 100 to 1000 nM |
| CC1=NN(c2ccc(S(=O)(=O)N(C)C)cc2)C(=O)C1C(=O)Nc1cccc(-c2cnccn2)c1 (stereo not drawn) [compound 262] | 6 to 100 nM |
| CCc1cccc(NC(=O)C2C(=O)N(c3ccc4cccnc4c3)N=C2C)c1 (stereo not drawn) [compound 267] | 6 to 100 nM |

| Structure (SMILES) | IC50 |
| --- | --- |
| CC1=NN(c2ccccc2)C(=O)C1C(=O)Nc1nccn1C (stereo not drawn) [compound 268] | 1000 to 100000 nM |
| CC1=NN(c2ccc(C(F)(F)F)cc2)C(=O)C1C(=O)Nc1cccc(-c2ncco2)c1 (stereo not drawn) [compound 270] | 100 to 1000 nM |
| CC1=NN(c2cccc(S(=O)(=O)N(C)C)c2)C(=O)C1C(=O)Nc1cccc(-c2cnccn2)c1 (stereo not drawn) [compound 272] | 6 to 100 nM |
| CC1=NN(c2cccc(S(=O)(=O)N(C)C)c2)C(=O)C1C(=O)Nc1cccc(-c2ncc[nH]2)c1 (stereo not drawn) [compound 277] | 6 to 100 nM |
| CC1=NN(c2ccccc2)C(=O)C1C(=O)Nc1ccc2[nH]cnc2c1 (stereo not drawn) [compound 278] | 1000 to 100000 nM |
| COc1ccc(N2N=C(C)C(C(=O)Nc3cccc(C(C)(F)F)c3)C2=O)cc1O (stereo not drawn) [compound 281] | 0.01 to 6 nM |
| CC1=NN(c2ccccc2)C(=O)C1C(=O)Nc1cscc1C (stereo not drawn) [compound 283] | 100 to 1000 nM |
| CCc1cc(NC(=O)C2C(=O)N(c3ccccc3)N=C2C)cs1 (stereo not drawn) [compound 284] | 100 to 1000 nM |
| CCc1csc(NC(=O)C2C(=O)N(c3ccccc3)N=C2C)c1 (stereo not drawn) [compound 285] | 100 to 1000 nM |
| CCc1ccsc1NC(=O)C1C(=O)N(c2ccccc2)N=C1C (stereo not drawn) [compound 288] | 100 to 1000 nM |
| CCc1cscc1NC(=O)C1C(=O)N(c2ccccc2)N=C1C (stereo not drawn) [compound 290] | 100 to 1000 nM |
| CC(=O)NS(=O)(=O)c1cccc(N2N=C(C)C(C(=O)Nc3cccc(C(C)(F)F)c3)C2=O)c1 (stereo not drawn) [compound 293] | 6 to 100 nM |
| CC(=O)NS(=O)(=O)c1cc(N2N=C(C)C(C(=O)Nc3cccc(C(C)(F)F)c3)C2=O)ccc1OC(F)(F)F (stereo not drawn) [compound 294] | 6 to 100 nM |
| CC1=NN(c2ccc(OC(F)(F)F)cc2)C(=O)C1C(=O)Nc1csc(C(C)(F)F)c1 (stereo not drawn) [compound 295] | 6 to 100 nM |
| CC1=NN(c2ccc(OC(F)(F)F)cc2)C(=O)C1C(=O)Nc1cc(C(C)(F)F)cs1 (stereo not drawn) [compound 296] | 6 to 100 nM |
| CC(=O)NS(=O)(=O)c1cc(N2N=C(C)C(C(=O)Nc3cccc(-c4ccco4)c3)C2=O)ccc1OC(F)(F)F (stereo not drawn) [compound 299] | 6 to 100 nM |
| COc1ccc(N2N=C(C)C(C(=O)Nc3cccc(C(C)(F)F)c3)C2=O)c(C)c1 (stereo not drawn) [compound 302] | 100 to 1000 nM |
| CC1=NN(c2ccc(OC(F)F)cc2)C(=O)C1C(=O)Nc1cccc(C2COC2)c1 (stereo not drawn) [compound 329] | 100 to 1000 nM |
| CC1=NN(c2cc(Cc3ccccc3Cl)cc(-c3ccccc3)c2)C(=O)C1C(=O)Nc1cccc(C(C)(F)F)c1 (stereo not drawn) [compound 333] | 6 to 100 nM |
| CC1=NN(c2cccc(CN)c2)C(=O)C1C(=O)Nc1cccc(C(C)(F)F)c1 (stereo not drawn) [compound 335] | 6 to 100 nM |
| CC1=NN(c2ccc(OC(F)F)cc2)C(=O)C1C(=O)Nc1cccc(C(C)(O)c2ccccc2)c1 (stereo not drawn) [compound 337] | 6 to 100 nM |
| Cc1nn(-c2ccc(OC(F)F)cc2)cc1C(=O)Nc1cccc(C(C)(F)F)c1 [compound 338] | 6 to 100 nM |
| CC1=NN(c2ccc(OC(F)F)cc2)C(=O)C1NC(=O)c1cccc(C(C)(F)F)c1 (stereo not drawn) [compound 341] | 100 to 1000 nM |

| Structure (SMILES) | IC50 |
| --- | --- |
| COc1ccc(N2N=C(C)C(C(=O)Nc3cccc(C(C)(F)F)c3)C2=O)cc1-c1cc[n+]([O-])cc1 (stereo not drawn) [compound 345] | 100 to 1000 nM |
| CC1=NN(c2ccc(OC(F)F)cc2)C(=O)C1C(=O)Nc1cccc2cc[nH]c12 (stereo not drawn) [compound 346] | 100 to 1000 nM |
| CC1=NN(c2ccc(OC(F)F)cc2)C(=O)C1C(=O)Nc1ccc2[nH]ccc2c1 (stereo not drawn) [compound 347] | 100 to 1000 nM |
| CC1=NN(c2ccc(C3COC3)cc2)C(=O)C1C(=O)Nc1cccc(C(C)(F)F)c1 (stereo not drawn) [compound 348] | 6 to 100 nM |
| CC1=NN(c2ccc(OC(F)F)cc2)C(=O)C1C(=O)Nc1ccc2cc[nH]c2c1 (stereo not drawn) [compound 349] | 100 to 1000 nM |
| CC1=NN(c2ccc(OC(F)F)cc2)C(=O)C1C(=O)Nc1cccc2[nH]ccc12 (stereo not drawn) [compound 350] | 100 to 1000 nM |
| COc1ccc(N2N=C(C)C(C(=O)Nc3cccc(C(C)(F)F)c3)C2=O)cc1-c1ncc(C)o1 (stereo not drawn) [compound 352] | 0.01 to 6 nM |
| COc1ccc(N2N=C(C)C(C(=O)Nc3cccc(C4COC4)c3)C2=O)cc1 (stereo not drawn) [compound 354] | 6 to 100 nM |
| CC1=NN(c2ccc(OC(F)F)c(-c3ncco3)c2)C(=O)C1C(=O)Nc1cccc(C(C)(F)F)c1 (stereo not drawn) [compound 355] | 0.01 to 6 nM |
| CC1=NN(c2cccc(C#CCN)c2)C(=O)C1C(=O)Nc1cccc(C(C)(F)F)c1 (stereo not drawn) [compound 356] | 6 to 100 nM |
| COc1ccc(N2N=C(C)C(C(=O)NCc3ccccc3)C2=O)cc1 (stereo not drawn) [compound 358] | 100 to 1000 nM |
| CCCn1ccc2ccc(N3N=C(C)C(C(=O)Nc4cccc(C(F)(F)CC)c4)C3=O)cc21 (stereo not drawn) [compound 359] | 0.01 to 6 nM |
| CCC(F)(F)c1cccc(NC(=O)C2C(=O)N(c3ccc4ccn(C(C)C)c4c3)N=C2C)c1 (stereo not drawn) [compound 360] | 0.01 to 6 nM |
| CC1=NN(c2ccc3ccn(-c4ccccc4)c3c2)C(=O)C1C(=O)Nc1cccc(C(C)(F)F)c1 (stereo not drawn) [compound 361] | 0.01 to 6 nM |
| CC1=NN(c2ccc(OC(F)F)cc2)C(=O)C1C(=O)Nc1cccc(C(F)(F)C(C)C)c1 (stereo not drawn) [compound 362] | 6 to 100 nM |
| CCCn1ccc2ccc(N3N=C(C)C(C(=O)Nc4cccc(C(C)(F)F)c4)C3=O)cc21 (stereo not drawn) [compound 363] | 0.01 to 6 nM |
| CC1=NN(c2ccc3ccn(C(C)C)c3c2)C(=O)C1C(=O)Nc1cccc(C(C)(F)F)c1 (stereo not drawn) [compound 364] | 0.01 to 6 nM |
| CC1=NN(c2cc(Cc3ccccc3OCc3ccccc3)cc(-c3cccnc3)c2)C(=O)C1C(=O)Nc1cccc(C(C)(F)F)c1 (stereo not drawn) [compound 365] | 6 to 100 nM |
| CC1=NN(c2ccc3ccn(C)c3c2)C(=O)C1C(=O)Nc1cccc(C(C)(F)F)c1 (stereo not drawn) [compound 366] | 0.01 to 6 nM |
| CC1=NN(c2ccc3ccn(Cc4ccccc4)c3c2)C(=O)C1C(=O)Nc1cccc(C(C)(F)F)c1 (stereo not drawn) [compound 367] | 0.01 to 6 nM |
| CCC(F)(F)c1cccc(NC(=O)C2C(=O)N(c3ccc(OC)c(-c4ccccc4)c3)N=C2C)c1 (stereo not drawn) [compound 368] | 0.01 to 6 nM |
| CCC(F)(F)c1cccc(NC(=O)C2C(=O)N(c3ccc4cc[nH]c4c3)N=C2C)c1 (stereo not drawn) [compound 369] | 0.01 to 6 nM |
| CCC(F)(F)c1cccc(NC(=O)C2C(=O)N(c3ccc(OC(F)F)c(-c4nnc(C)[nH]4)c3)N=C2C)c1 (stereo not drawn) [compound 370] | 0.01 to 6 nM |
